From EP0642504B1 (priority 1991, dated 1993)
Marks after values point to notes of the source that are not given here.

What was measured:
[1] = test system: forebrain ischemia (unilateral occlusion); test: Forebrain ischemia (unilateral occlusion); assay type: in vivo; conditions: mongolian gerbils
Source text: (§1) The present compounds are active in several tests generally used to indicate neuroprotection.

[2] = test system: strychnine induced lethality; test: Protection against strychnine induced lethality; assay type: in vivo; conditions: rats
Source text: as §1

[3] = test system: Arachidonic Acid-Induced Paw Edema; test: Arachidonic acid-induced paw edema (water displacement); assay type: in vivo, CD-1 female mice; conditions: oral, 30 min after arachidonic acid (1.0 mg s.c.), vs vehicle treated controls
Protocol: The induction of paw edema in rodents by injection of arachidonic acid has been used as an experimental model for inflammation [Calhoun, W., et al., Agents and Actions, 21, 306 (1987)]. Prior administration of non-steroidal anti-inflammatory drugs (NSAIDs) in many cases leads to a dose related inhibition of the edematous response which may be considered a predictor of clinical efficacy.
The conditions were based on those reported previously [Calhoun et al., ibid.]. […] PAF (1.0 µg) or arachidonic acid (1.0 mg) dissolved in 50 µl of 5% ethanol in saline, were injected s.c. into the plantar surface of the right hind paw of CD-1 female mice (20-25 g) obtained from Charles River Labs. The mice were under ether anesthesia during this procedure. The volume of the right foot was measured to the level of the lateral malleous by water displacement before treatment and 15 min after PAF injection or 30 min after archidonate injection. The change in paw volume was calculated for each mouse and the significance for each group was determined by a paired t test analysis.

peritoneal leukocytes = test: Leukocyte adhesion assay, peritoneal cells collected after oral dosing; assay type: in vivo, CD-1 mice; conditions: cells collected 90 min after administration; for number of adhering cells x 10^-6 ± S.D.: 18-20 hours incubation
Protocol: Leukocytes are thought to be major contributors to the inflammatory response and their ability in this regard is reflected by their adhesiveness to a variety of substrates [Audette, C.A., et al., Life Sci., 47, 753 (1990)].
The details of the leukocytes adhesion assay have been previously reported [Audette et al., ibid.]. In brief, peritoneal cells from femals CD-1 mice (20-25 g) were collected at 90 min following oral administration of the drug or vehicle (50 µl peanut oil). Cells from each treatment group (N=3) were pooled and equal numbers aliquoted into six culture dish wells (1.9 cm^2 area). After incubation for 18-20 hours, non-adhering cells were removed and the remaining cell monolayer quantitated by DNA measurement.

## CCCCCCC(C)(C)c1cc(OC(C)=O)c2c(c1)OC(C)(C)[C@H]1CC=C(C(=O)O)C[C@H]21 [HU-245, (3S,4S)-THC-DMH-7-oic acid, acetate]
[1]
  protection against forebrain ischemia: protect against forebrain ischemia
[2]
  protection against strychnine induced lethality: protects against strychnine induced lethality
[3]; dose 0.050 mg.kg
  percent inhibition of paw edema: 35.7 (N.S.) percent
[3]; dose 0.100 mg.kg
  percent inhibition of paw edema: 50.1* percent
[3]; dose 0.250 mg.kg
  percent inhibition of paw edema: 48.2* percent
[3]; dose 0.55 mg.kg
  percent inhibition of paw edema: 42.2 (N.S.) percent
Peritoneal leukocytes; dose 0.05 mg/kg oral
  adhering cells, percent of control: 105% of control
  number of adhering cells x 10^-6 ± S.D.: 1.32±0.04 x 10^-6
Peritoneal leukocytes; dose 0.10 mg/kg oral
  adhering cells, percent of control: 52% of control
  number of adhering cells x 10^-6 ± S.D.: 0.66±0.05 x 10^-6
Peritoneal leukocytes; dose 0.50 mg/kg oral
  adhering cells, percent of control: 67% of control
  number of adhering cells x 10^-6 ± S.D.: 0.85±0.08 x 10^-6
Peritoneal leukocytes; dose 1.00 mg/kg oral
  adhering cells, percent of control: 24% of control
  number of adhering cells x 10^-6 ± S.D.: 0.30±0.04 x 10^-6
